Where “and” joins values, the source holds several entries; their conditions need not be identical. Identical values can stand only once. Entries after “also recorded” stand apart in the source; their conditions may differ.
What was measured:
[1] = target: PSMA, lysates of LNCaP cell extracts (Homo sapiens (Human), UniProt Q04609); assay: fluorescence-based PSMA inhibition assay (Amplex Red glutamic acid kit); format: biochemical; details: 4 μM NAAG
[2] = system: PC-3 PIP (PSMA+) and PC-3 flu (PSMA−) xenograft-bearing SCID mice; assay: Ex vivo biodistribution in tumor-bearing mice
[3] = target: NAALADase (PSMA) prepared from LNCaP cell lysates (Homo sapiens (Human), UniProt Q04609); assay: NAALADase (radiometric) assay, NAAG hydrolysis; format: biochemical; details: [3H]NAAG 30 nM
[4] = Stability of radiolabeled product after synthesis; format: physicochemical; details: after radiosynthesis and HPLC
Procedure: Synthesis of 2-[3-(1-carboxy-5-{4-[N′-(4-[^18F]fluoro-benzylidene)-hydrazino]-benzoylamino}-pentyl)-ureido]-pentanedioic acid (^18F]12). 4-[^18F]fluorobenzaldehyde was synthesized by using a known procedure (Nuclear Medicine and Biology 33 (2006) 677-683). To the crude DMSO solution of 4-[^18F]fluorobenzaldehyde was added 1-2 mg of compound 14, 0.2 mL of 50 mM KH2PO4. The vial was closed and heated at 90° C. for […]. The reaction mixture was then purified by HPLC (Ecomosphere C18 10μ, 250×10 mm, H2O/CH3CN/TFA [70/30/0.1], 4 mL/min). The radiochemical yield (decay corrected and based on starting [^18F] fluoride, n=2) was 30-55%. […] The specific activity of final compound was not determined.

[5] = system: PC-3 PIP and PC-3 flu xenografts in SCID mouse; assay: PET-CT imaging of [18F]6; format: in vivo; details: 94-120 min p.i., PC-3 PIP and PC-3 flu tumors
Procedure: Compound [^18F]6. In vivo PET-CT: A SCID mouse bearing subcutaneous PC-3 PIP and PC-3 flu xenografts was anesthetized using 3% isoflurane in oxygen for induction and 1.5% isoflurane in oxygen at 0.8 L/min flow for maintenance and positioned prone on the gantry of a GE eXplore Vista small animal PET scanner (GE Healthcare, Milwaukee, Wis.). The mouse was injected intravenously with 7.4 MBq (200 μCi) of [^18F]6 followed by image acquisition using the following protocol: The images were acquired as a pseudodynamic scan, i.e., a sequence of successive whole-body images acquired in three bed positions for a total of 90 min. The dwell time at each position was 5 minutes, such that a given bed position (or mouse organ) was revisited every 15 min. An energy window of 250-700 keV was used. Images were reconstructed using the FORE/2D-OSEM method (2 iterations, 16 subsets) and included corrections for radioactive decay, scanner dead time and scattered radiation.

[6] = system: PC-3 PIP and PC-3 flu xenografts in SCID mouse; assay: SPECT-CT imaging of [125I]3 in PCa tumor models; format: in vivo; details: 4 h p.i., PC-3 PIP and PC-3 flu tumors
Procedure: At 4 and 6 h p.i. the mouse was anesthetized with isoflurane and maintained under 1% isoflurane in oxygen. The mouse was positioned on the X-SPECT (Gamma Medica, Northridge, Calif.) gantry and was scanned using two low energy, high-resolution pinhole collimators (Gamma Medica) rotating through 360° in 6° increments for 45 seconds per increment. All gamma images were reconstructed using Lunagem software (Gamma Medica, Northridge, Calif.) Immediately following SPECT acquisition, the mice were then scanned by CT (X-SPECT) over a 4.6 cm field-of-view using a 600 μA, 50 kV beam. […] Data were reconstructed using the Ordered Subsets-Expectation Maximization (OS-EM) algorithm.

PSMA, lysates of LNCaP cell extracts, sequence (Q04609 whole entry): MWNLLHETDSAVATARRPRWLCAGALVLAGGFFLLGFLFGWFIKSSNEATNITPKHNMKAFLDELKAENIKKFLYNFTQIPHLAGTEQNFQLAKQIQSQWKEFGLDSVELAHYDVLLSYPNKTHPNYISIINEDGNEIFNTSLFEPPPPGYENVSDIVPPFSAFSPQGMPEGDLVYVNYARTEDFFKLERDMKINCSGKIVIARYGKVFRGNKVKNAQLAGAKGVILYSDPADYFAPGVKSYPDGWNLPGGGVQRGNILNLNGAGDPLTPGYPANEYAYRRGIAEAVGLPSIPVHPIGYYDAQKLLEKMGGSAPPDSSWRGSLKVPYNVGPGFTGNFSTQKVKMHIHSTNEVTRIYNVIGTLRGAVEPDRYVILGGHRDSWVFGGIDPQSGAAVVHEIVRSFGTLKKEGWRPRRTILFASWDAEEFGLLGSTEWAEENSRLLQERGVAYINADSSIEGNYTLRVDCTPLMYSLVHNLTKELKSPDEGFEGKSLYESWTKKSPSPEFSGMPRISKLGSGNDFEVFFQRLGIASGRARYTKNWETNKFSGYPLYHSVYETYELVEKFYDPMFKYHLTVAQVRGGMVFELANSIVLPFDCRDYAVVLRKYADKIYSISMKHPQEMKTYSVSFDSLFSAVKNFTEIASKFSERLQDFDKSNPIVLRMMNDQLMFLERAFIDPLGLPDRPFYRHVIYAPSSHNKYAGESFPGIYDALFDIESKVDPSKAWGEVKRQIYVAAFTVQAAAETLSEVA

O=C(O)CCC(NC(=O)NC(CCCCNC(=O)c1ccc(F)cc1)C(=O)O)C(=O)O (stereo not drawn) [Compound 6, 2-{3-[1-Carboxy-5-(4-fluoro-benzoylamino)-pentyl]-ureido}-pentanedioic acid]
Ki [1]: 0.194 nM | PIP:flu ratio ([2]; 5 h p.i.): 31 | Ki [3]: 0.256 nM

O=C(O)CCC(NC(=O)NC(CCCCNC(=O)c1ccc(NN=Cc2ccc(F)cc2)cc1)C(=O)O)C(=O)O (stereo not drawn) [Compound 12, 2-[3-(1-carboxy-5-{4-[N′-(4-fluoro-benzylidene)-hydrazino]-benzoylamino}-pentyl)-ureido]-pentanedioic acid]
stability of compound after preparation [4]: decomposed soon after been made

O=C(O)CCC(NC(=O)NC(CCCCNC(=O)c1ccc([18F])cc1)C(=O)O)C(=O)O (stereo not drawn) [[^18F]6, 2-{3-[1-carboxy-5-(4-[^18F]fluoro-benzoylamino)-pentyl]-ureido}-pentanedioic acid]
uptake pattern in PET-CT [5]: easily observed within PIP tumor, none within flu tumor, high renal uptake and a modest degree of liver uptake; also recorded: uptake within the PSMA+ PIP tumor only | PC-3 PIP tumor uptake ([2]; 30 min p.i.): 8.58±3.09 % ID/g and 8.6 ± 3.1 % ID/g | PC-3 flu tumor uptake ([2]; 30 min p.i.): 0.8 ± 0.3 % ID/g | PIP tumor:bladder ratio ([2]; 30 min p.i.): (1) | PIP tumor:blood ratio ([2]; 30 min p.i.): (3) | PIP tumor:heart ratio ([2]; 30 min p.i.): (11) | PIP tumor:kidney ratio ([2]; 30 min p.i.): (0.1) | PIP tumor:large intestine ratio ([2]; 30 min p.i.): (7) | PIP tumor:liver ratio ([2]; 30 min p.i.): (1) | PIP tumor:lung ratio ([2]; 30 min p.i.): (5) | PIP tumor:muscle ratio ([2]; 30 min p.i.): (4) | PIP tumor:pancreas ratio ([2]; 30 min p.i.): (11) | PIP tumor:small intestine ratio ([2]; 30 min p.i.): (5) | PIP tumor:spleen ratio ([2]; 30 min p.i.): (0.7) | PIP tumor:stomach ratio ([2]; 30 min p.i.): (11) | PIP:flu ratio ([2]; 30 min p.i.): 11 | bladder uptake ([2]; 30 min p.i.): 6.8 ± 3.5 % ID/g | blood uptake ([2]; 30 min p.i.): 2.5 ± 1.7 % ID/g | heart uptake ([2]; 30 min p.i.): 0.8 ± 0.1 % ID/g | kidney uptake ([2]; 30 min p.i.): 72.05±3.19 % ID/g and 72 ± 3 % ID/g | large intestine uptake ([2]; 30 min p.i.): 1.2 ± 0.8 % ID/g | liver uptake ([2]; 30 min p.i.): 8.7 ± 1.8 % ID/g | lung uptake ([2]; 30 min p.i.): 1.7 ± 0.3 % ID/g | muscle uptake ([2]; 30 min p.i.): 2.4 ± 3.1 % ID/g | pancreas uptake ([2]; 30 min p.i.): 0.8 ± 0.1 % ID/g | small intestine uptake ([2]; 30 min p.i.): 1.7 ± 0.7 % ID/g | spleen uptake ([2]; 30 min p.i.): 12.67±0.36 % ID/g and 12.7 ± 0.4 % ID/g | stomach uptake ([2]; 30 min p.i.): 0.8 ± 0.1 % ID/g | PC-3 PIP tumor uptake ([2]; 60 min p.i.): 6.4 ± 0.9 % ID/g | PC-3 flu tumor uptake ([2]; 60 min p.i.): 0.3 ± 0.05 % ID/g | PIP tumor:bladder ratio ([2]; 60 min p.i.): (0.4) | PIP tumor:blood ratio ([2]; 60 min p.i.): (9) | PIP tumor:heart ratio ([2]; 60 min p.i.): (35) | PIP tumor:kidney ratio ([2]; 60 min p.i.): (0.1) | PIP tumor:large intestine ratio ([2]; 60 min p.i.): (13) | PIP tumor:liver ratio ([2]; 60 min p.i.): (1) | PIP tumor:lung ratio ([2]; 60 min p.i.): (13) | PIP tumor:muscle ratio ([2]; 60 min p.i.): (13) | PIP tumor:pancreas ratio ([2]; 60 min p.i.): (21) | PIP tumor:small intestine ratio ([2]; 60 min p.i.): (11) | PIP tumor:spleen ratio ([2]; 60 min p.i.): (1) | PIP tumor:stomach ratio ([2]; 60 min p.i.): (26) | PIP:flu ratio ([2]; 60 min p.i.): 21 | bladder uptake ([2]; 60 min p.i.): 17 ± 21 % ID/g | blood uptake ([2]; 60 min p.i.): 0.7 ± 0.5 % ID/g | heart uptake ([2]; 60 min p.i.): 0.2 ± 0.02 % ID/g | kidney uptake ([2]; 60 min p.i.): 48 ± 5 % ID/g | large intestine uptake ([2]; 60 min p.i.): 0.5 ± 0.1 % ID/g | liver uptake ([2]; 60 min p.i.): 5.8 ± 0.6 % ID/g | lung uptake ([2]; 60 min p.i.): 0.5 ± 0.1 % ID/g | muscle uptake ([2]; 60 min p.i.): 0.5 ± 0.7 % ID/g | pancreas uptake ([2]; 60 min p.i.): 0.3 ± 0.1 % ID/g | small intestine uptake ([2]; 60 min p.i.): 0.6 ± 0.2 % ID/g | spleen uptake ([2]; 60 min p.i.): 7.2 ± 1.6 % ID/g | stomach uptake ([2]; 60 min p.i.): 0.25 ± 0.1 % ID/g | PC-3 PIP tumor uptake ([2]; 2 h p.i.): 3.7 ± 1.2 % ID/g | PC-3 flu tumor uptake ([2]; 2 h p.i.): 0.25 ± 0.1 % ID/g | PIP tumor:bladder ratio ([2]; 2 h p.i.): (0.3) | PIP tumor:blood ratio ([2]; 2 h p.i.): (9) | PIP tumor:heart ratio ([2]; 2 h p.i.): (25) | PIP tumor:kidney ratio ([2]; 2 h p.i.): (0.1) | PIP tumor:large intestine ratio ([2]; 2 h p.i.): (19) | PIP tumor:liver ratio ([2]; 2 h p.i.): (0.3) | PIP tumor:lung ratio ([2]; 2 h p.i.): (4) | PIP tumor:muscle ratio ([2]; 2 h p.i.): (19) | PIP tumor:pancreas ratio ([2]; 2 h p.i.): (25) | PIP tumor:small intestine ratio ([2]; 2 h p.i.): (12) | PIP tumor:spleen ratio ([2]; 2 h p.i.): (1) | PIP tumor:stomach ratio ([2]; 2 h p.i.): (13) | PIP:flu ratio ([2]; 2 h p.i.): 15 | bladder uptake ([2]; 2 h p.i.): 11 ± 8 % ID/g | blood uptake ([2]; 2 h p.i.): 0.4 ± 0.2 % ID/g | heart uptake ([2]; 2 h p.i.): 0.15 ± 0.05 % ID/g | kidney uptake ([2]; 2 h p.i.): 29 ± 12 % ID/g | large intestine uptake ([2]; 2 h p.i.): 0.2 ± 0.1 % ID/g | liver uptake ([2]; 2 h p.i.): 11.7 ± 7.0 % ID/g | lung uptake ([2]; 2 h p.i.): 1.0 ± 0.9 % ID/g | muscle uptake ([2]; 2 h p.i.): 0.2 ± 0.1 % ID/g | pancreas uptake ([2]; 2 h p.i.): 0.15 ± 0.03 % ID/g | small intestine uptake ([2]; 2 h p.i.): 0.3 ± 0.2 % ID/g | spleen uptake ([2]; 2 h p.i.): 4.4 ± 1.2 % ID/g | stomach uptake ([2]; 2 h p.i.): 0.3 ± 0.1 % ID/g | PC-3 PIP tumor uptake ([2]; 5 h p.i.): 3.5 ± 2.3 % ID/g | PC-3 flu tumor uptake ([2]; 5 h p.i.): 0.1 ± 0.1 % ID/g | PIP tumor:bladder ratio ([2]; 5 h p.i.): (0.7) | PIP tumor:blood ratio ([2]; 5 h p.i.): (117) | PIP tumor:heart ratio ([2]; 5 h p.i.): (117) | PIP tumor:kidney ratio ([2]; 5 h p.i.): (0.3) | PIP tumor:large intestine ratio ([2]; 5 h p.i.): (6) | PIP tumor:liver ratio ([2]; 5 h p.i.): (3.5) | PIP tumor:lung ratio ([2]; 5 h p.i.): (35) | PIP tumor:muscle ratio ([2]; 5 h p.i.): (35) | PIP tumor:pancreas ratio ([2]; 5 h p.i.): (70) | PIP tumor:small intestine ratio ([2]; 5 h p.i.): (35) | PIP tumor:spleen ratio ([2]; 5 h p.i.): (3.5) | PIP tumor:stomach ratio ([2]; 5 h p.i.): (88) | PIP:flu ratio ([2]; 5 h p.i.): 35 | bladder uptake ([2]; 5 h p.i.): 5.2 ± 8.9 % ID/g | blood uptake ([2]; 5 h p.i.): 0.03 ± 0.00 % ID/g | heart uptake ([2]; 5 h p.i.): 0.03 ± 0.01 % ID/g | kidney uptake ([2]; 5 h p.i.): 14 ± 9 % ID/g | large intestine uptake ([2]; 5 h p.i.): 0.6 ± 0.6 % ID/g | liver uptake ([2]; 5 h p.i.): 1.0 ± 0.6 % ID/g | lung uptake ([2]; 5 h p.i.): 0.1 ± 0.1 % ID/g | muscle uptake ([2]; 5 h p.i.): 0.1 ± 0.1 % ID/g | pancreas uptake ([2]; 5 h p.i.): 0.05 ± 0.03 % ID/g | small intestine uptake ([2]; 5 h p.i.): 0.1 ± 0.04 % ID/g | spleen uptake ([2]; 5 h p.i.): 1.0 ± 0.6 % ID/g | stomach uptake ([2]; 5 h p.i.): 0.04 ± 0.02 % ID/g

O=C(O)CCC(NC(=O)NC(CCCCNC(=O)c1ccc([125I])cc1)C(=O)O)C(=O)O (stereo not drawn) [[^125I]3, 2-{3-[1-carboxy-5-(4-[^125I]iodo-benzoylamino)-pentyl]-ureido}-pentanedioic acid]
radiopharmaceutical uptake in SPECT-CT image [6]: intense uptake in the PC-3 PIP and absence of uptake in the PC-3 flu tumor; also recorded: uptake within the PSMA+ PIP tumor only

Reference: patent US12070513B2, “PSMA-binding agents and uses thereof” (The Johns Hopkins University, priority 2008, dated 2024)
